From patent US20020164581A1 (priority 2001, published 2002)

Legend:
[1] = system: catalase (CAT); assay: CAT activity in cell lysate (H2O2 degradation); format: cell-based, bovine
Experimental: (§1) Cells pretreated with different concentrations of E2 for 24 hours were harvested in a solution containing 50 mM Tris-HCl (pH 7.4), 1 mM EDTA, 2 μg/ml pepstatin A, 10 μg/ml benzamidine, and 10 μg/ml trypsin inhibitor. The cells were then lysed on ice by sonication at a setting of 50 mW, with 3×15 set cycles using a Cole-Parmer Ultrasonic Homogenizer (Chicago, Ill.). Protein concentrations in the samples were determined by the Bradford method with bovine serum albumin as a standard (Bradford, Anal. Biochem. 72:248-254, 1976).
CAT activity was determined by the method of Aebi (Methods Enzymol. 105:121,-126, 1984). One unit of CAT activity is defined as the amount of protein that degrades 1 μmole of H2O2 per minute. Initially, 10 μl of absolute ethanol was mixed with 100 μl of cell homogenates and pre-incubated at 4° C. for 30 minutes. Following the addition of 10 μl Triton X-100 (reduced form), a 100 μl aliquot (about 100 μg of protein) of the resultant mixture was next added to 500 μl of hydrogen peroxide (66 mM) and 400 μl of phosphate buffer (0.1 M NaH2PO4, 0.1 M Na2HPO4, 0.1 mM EDTA, pH 7.0). The absorbency of the mixture was monitored for one minute at 240 nm spectrophotometrically. The molar extinction coefficient of 43.6 M/cm was used to determine the catalase activity.

[2] = system: glutathione peroxidase (GPX); assay: GPX activity in cell lysate (NADPH oxidation); format: cell-based, bovine
Experimental: as §1
GPX activity was determined by a modified method of Flohe and Gunzler (Methods Enzymol. 105:114-121, 1984). One unit of GPX activity is defined as the amount of protein that oxidizes 1 nmole of β-NADPH per minute. In this assay, 100 μl of cell homogenate (about 100 μg protein) was added to 800 μl of phosphate buffer (0.1 M NaH2PO4, 0.1 M Na2HPO4, 0.1 mM EDTA, pH 7.0) containing 12.5 mM glutathione (reduced form, GSH), 0.2 mM β-nicotinamide adenine dinucleotide phosphate (reduced form, β-NADPH), and 0.34 U glutathione reductase. This mixture was pre-incubated at 37 C for 10 minutes and then 100 μl of 12 mM t-butyl hydroperoxide was added. The absorbency of the mixture was determined at 340 nm for 3 minutes. The molar extinction coefficient of 6.22 mM/cm was used to determine the activity of GPX.

[3] = 1 nM E2 pretreatment (Example 8)
[4] = female bAECs, 24 h 1 nM E2 (Example 12)

C[C@]12CC[C@@H]3c4ccc(O)cc4CC[C@H]3[C@@H]1CC[C@@H]2O [E2, 17β-estradiol]
CAT activity elevation relative to untreated cells [1, 3]: ~2 fold | CAT activity increase [1, 4]: ~2 fold | GPX activity elevation relative to untreated cells [2, 3]: ~2 fold | GPX activity increase [2, 4]: ~3 fold
